According to patent publication US10287301B2 (Achillion Pharmaceuticals, Inc., priority 2015, dated 2019):
Where two headings read alike, the source gives them in different places.

Target: Human Factor D (Homo sapiens (Human), UniProt P00746)
Assay: Human Factor D Assay
Assay type: biochemical
Outline: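 Thioesterase activity monitored with Z-L-Lys-SBzl plus Ellman's reagent (DTNB), each 100 μM final, after 5 min room-temperature compound preincubation of 80 nM human serum Factor D in pH 7.5 Tris (50 mM)/1M NaCl.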

[1] = Human Factor D 80 nM, substrate Z-L-Lys-SBzl, read-out: IC50
[2] = Human Factor D, Table 3, read-out: IC50
[3] = Table 3, Human Factor D 80 nM, substrate Z-L-Lys-SBzl, read-out: IC50 (Stars)
[4] = Human Factor D assay of Example 8, Table 2, read-out: IC50

Human Factor D, sequence (P00746 26-253): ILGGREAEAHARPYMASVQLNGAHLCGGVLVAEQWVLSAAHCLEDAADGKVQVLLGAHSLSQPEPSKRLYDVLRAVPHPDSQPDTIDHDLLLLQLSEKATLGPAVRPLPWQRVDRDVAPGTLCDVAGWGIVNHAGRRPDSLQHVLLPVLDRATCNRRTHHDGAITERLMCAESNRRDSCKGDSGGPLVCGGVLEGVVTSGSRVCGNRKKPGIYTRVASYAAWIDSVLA

In the case of CC(=O)c1nn(CC(=O)N2[C@@H]3C[C@@H]3C[C@H]2C(=O)Nc2cccc(-c3ccccc3Cl)c2F)c2ccc(-c3cnc(C)nc3)cc12 [Compound 189, (1R,3S,5R)-2-(2-(3-acetyl-5-(2-methylpyrimidin-5-yl)-1H-indazol-1-yl)acetyl)-N-(2′-chloro-2-fluorobiphenyl-3-yl)-2-azabicyclo[3.1.0] hexane-3-carboxamide], the IC50 [1] is reported as < 1 µM.
NC(=O)c1nn(CC(=O)N2C[C@H](F)C[C@H]2C(=O)Nc2cccnc2)c2ccc(-c3ccnnc3)cc12 [Compound 47, 1-(2-((2S,4R)-4-fluoro-2-(pyridin-3-ylcarbamoyl)pyrrolidin-1-yl)-2-oxoethyl)-5-(pyridazin-4-yl)-1H-indazole-3-carboxamide] was tested, and the IC50 was > 10 µM.
CC(=O)c1nn(CC(=O)N2C[C@H](F)C[C@H]2C(=O)Nc2nc(C(C)(F)F)ccc2C)c2ccc(-c3cnc(C)nc3)cc12 [Compound 602, (2S,4R)-1-(2-(3-Acetyl-5-(2-methylpyrimidin-5-yl)-1H-indazol-1-yl)acetyl)-N-(6-(1,1-difluoroethyl)-3-methylpyridin-2-yl)-4-fluoropyrrolidine-2-carboxamide] was tested, and the IC50 [2] was < 1 µM.
Cn1cc(N2CCCC(NC(=O)[C@@H]3C[C@@H](F)CN3C(=O)Cn3nc(C(N)=O)c4cc(-c5ccnnc5)ccc43)C2)cn1 (stereo partly drawn) [Compound 141, 1-(2-((2S,4R)-4-fluoro-2-(1-(1-methyl-1H-pyrazol-4-yl)piperidin-3-ylcarbamoyl)pyrrolidin-1-yl)-2-oxoethyl)-5-(pyridazin-4-yl)-1H-indazole-3-carboxamide] was tested, and the IC50 [1] was > 10 µM.
For CC(=O)c1nn(CC(=O)N2C[C@H](F)C[C@H]2C(=O)Nc2cccc(Br)n2)c2ccc(-c3cnn(-c4ncccn4)c3)cc12 [Compound 696, (2S,4R)-1-(2-(3-Acetyl-5-(1-(pyrimidin-2-yl)-1H-pyrazol-4-yl)-1H-indazol-1-yl)acetyl)-N-(6-bromopyridin-2-yl)-4-fluoropyrrolidine-2-carboxamide], the IC50 [2] was < 1 µM.
With Cc1cccc(NC(=O)[C@@H]2[C@H]3CC[C@H](C3)N2C(=O)Cn2cc(C(N)=O)c3cc(-c4n[nH]c5ccsc45)ccc32)n1 [Compound 704, 1-(2-((1R,3S,4S)-3-((6-Methylpyridin-2-yl)carbamoyl)-2-azabicyclo[2.2.1]heptan-2-yl)-2-oxoethyl)-5-(1H-thieno[3,2-c]pyrazol-3-yl)-1H-indole-3-carboxamide] the IC50 was > 10 µM.
With CC(=O)c1ccc(Cl)c(-c2cccc(NC(=O)[C@@H]3C[C@H]4C[C@H]4N3C(=O)Cn3nc(C(N)=O)c4sc(-c5cnc6cc(C)nn6c5)nc43)c2F)c1 [Compound 716, 1-(2-((1R,3S,5R)-3-(5′-Acetyl-2′-chloro-2-fluorobiphenyl-3-ylcarbamoyl)-2-azabicyclo[3.1.0]hexan-2-yl)-2-oxoethyl)-5-(2-methylpyrazolo[1,5-a]pyrimidin-6-yl)-1H-pyrazolo[3,4-d]thiazole-3-carboxamide] the IC50 [2] was < 1 µM.
In the case of CC(=O)c1nn(CC(=O)N2C[C@H](F)C[C@H]2C(=O)Nc2cccc(Br)n2)c2ccc(-c3cnc(NC4CC4)nc3)cc12 [Compound 367, (2S,4R)-1-(2-(3-Acetyl-5-(2-(cyclopropylamino)pyrimidin-5-yl)-1H-indazol-1-yl)acetyl)-N-(6-bromopyridin-2-yl)-4-fluoropyrrolidine-2-carboxamide], the IC50 [3] is reported as < 1 µM.
In the case of CC(=O)c1nn(CC(=O)N2C[C@H](F)C[C@H]2C(=O)Nc2cccc(Br)n2)c2ccc(-c3cnc4c(C#N)cnn4c3)cc12 [Compound 263, (2S,4R)-1-(2-(3-acetyl-5-(3-cyanopyrazolo[1,5-a]pyrimidin-6-yl)-1H-indazol-1-yl)acetyl)-N-(6-bromopyridin-2-yl)-4-fluoropyrrolidine-2-carboxamide], the IC50 [4] is reported as < 1 µM.
With NC(=O)c1nn(CC(=O)N2C[C@H](F)C[C@H]2C(=O)NCc2nc3ccccc3s2)c2ccc(-c3ccnnc3)cc12 [Compound 52, 1-(2-((2S,4R)-2-(benzo[d]thiazol-2-ylmethylcarbamoyl)-4-fluoropyrrolidin-1-yl)-2-oxoethyl)-5-(pyridazin-4-yl)-1H-indazole-3-carboxamide] the IC50 [1] was > 10 µM.
With CC(=O)c1nn(CC(=O)N2CCC[C@H]2C(=O)Nc2cccc(C)n2)c2ccc(-c3cnc4ncccn34)cc12 [Compound 708, (S)-1-(2-(3-Acetyl-5-(imidazo[1,2-a]pyrimidin-3-yl)-1H-indazol-1-yl)acetyl)-N-(6-methylpyridin-2-yl)pyrrolidine-2-carboxamide] the IC50 [2] was < 1 µM.
With CC(=O)c1nn(CC(=O)N2C[C@@H](N)[C@H](F)[C@H]2C(=O)Nc2cccc(Br)n2)c2ccc(-c3cnc(C)nc3)cc12 [Compound 428, (2R,3S,4R)-1-(2-(3-Acetyl-5-(2-methylpyrimidin-5-yl)-1H-indazol-1-yl)acetyl)-4-amino-N-(6-bromopyridin-2-yl)-3-fluoropyrrolidine-2-carboxamide] the IC50 [3] was > 10 µM.
In the case of CC(=O)c1nn(CC(=O)N2CC[C@@H](O)[C@H]2C(=O)Nc2cccc(Br)n2)c2ccc(-c3cnc(C)nc3)cc12 [Compound 315, (2S,3R)-1-(2-(3-acetyl-5-(2-methylpyrimidin-5-yl)-1H-indazol-1-yl)acetyl)-N-(6-bromopyridin-2-yl)-3-hydroxypyrrolidine-2-carboxamide], the IC50 [4] is reported as < 1 µM.
COC(=O)Cc1cccc(NC(=O)[C@@H]2C[C@@H](F)CN2C(=O)Cn2nc(C(C)=O)c3cc(-c4cnc5cc(C)nn5c4)ccc32)n1 [Compound 679, methyl 2-(6-((2S,4R)-1-(2-(3-acetyl-5-(2-methylpyrazolo[1,5-a]pyrimidin-6-yl)-1H-indazol-1-yl)acetyl)-4-fluoropyrrolidine-2-carboxamido)pyridin-2-yl)acetate] was tested, and the IC50 [2] was < 1 µM.
With CC(=O)c1nn(CC(=O)N2[C@H](C(=O)Nc3cccc(OC(F)(F)F)c3F)C[C@@]3(C)C[C@@H]23)c2ccc(-c3cnc(C)nc3)cc12 [Compound 630, (1R,3S,5R)-2-(2-(3-acetyl-5-(2-methylpyrimidin-5-yl)-1H-indazol-1-yl)acetyl)-N-(2-fluoro-3-(trifluoromethoxy)phenyl)-5-methyl-2-azabicyclo[3.1.0] hexane-3-carboxamide] the IC50 [2] was < 1 µM.
With CC(=O)c1nn(CC(=O)N2C[C@H](F)C[C@H]2C(=O)Nc2cncc(Br)n2)c2ccc(-c3cnc(N)nc3)cc12 [Compound 353, (2S,4R)-1-(2-(3-Acetyl-5-(2-aminopyrimidin-5-yl)-1H-indazol-1-yl)acetyl)-N-(6-bromopyrazin-2-yl)-4-fluoropyrrolidine-2-carboxamide] the IC50 [3] was < 1 µM.
In the case of CC(=O)c1cn(CC(=O)N2C[C@H](F)C[C@H]2C(=O)Nc2ccnc(=O)n2C)c2ccc(-c3ccnnc3)cc12 [Compound 173, (2S,4R)-1-(2-(3-acetyl-5-(pyridazin-4-yl)-1H-indol-1-yl)acetyl)-4-fluoro-N-(3-methyl-2-oxo-2,3-dihydropyrimidin-4-yl)pyrrolidine-2-carboxamide], the IC50 [1] is reported as > 10 µM.
With CC(=O)c1nn(CC(=O)N2[C@@H]3C[C@@H]3C[C@H]2C(=O)Nc2cccc(Br)n2)c2ccc(-c3cnc4cc(C)nn4c3)cc12 [Compound 257, (1R,3S,5R)-2-(2-(3-acetyl-5-(2-methylpyrazolo[1,5-a]pyrimidin-6-yl)-1H-indazol-1-yl)acetyl)-N-(6-bromopyridin-2-yl)-2-azabicyclo[3.1.0] hexane-3-carboxamide] the IC50 [4] was < 1 µM.
